# Earlier results as cited in patent US20050101565A1, “Pharmaceutical compositions and methods for treating, preventing, and managing cholesterol, dyslipidemia, and related disorders” (Esperion Therapeutics, Inc., priority 2002, published 2005).
# What was measured:
# [1] = patients on metformin therapy
# [2] = many patients, metformin therapy
smiles,measurement,setting,value
CN(C)C(=N)N=C(N)N [metformin],incidence of lactic acidosis,[1],"3 cases per 100,000 patient/year of therapy"
same,weight reduction,[2],5-10%
